From patent US6906083B2 (dated 2005)

Structure (SMILES) | melting point
COc1cc2c(cc1OC)C(=O)C(F)(CC1CCN(CC(C)C)CC1)C2.Cl (stereo not drawn) | 220 to 225 °C (dec.)
COc1cc2c(cc1OC)C(=O)C(F)(CC1CCNCC1)C2.Cl (stereo not drawn) | > 240 °C (dec.)
COc1cc2c(cc1OC)C(=O)C(F)(CC1CCN(C)CC1)C2.Cl (stereo not drawn) | 215 to 220 °C (dec.)
